Data from US20170275298A1, “INHIBITORS OF THE RENAL OUTER MEDULLARY POTASSIUM CHANNEL” (Merck Sharp & Dohme Corp., priority 2014, published 2017).

The compounds below were run against T1, hROMK (hKir1.1) (Homo sapiens, UniProt P48048) (assay: Thallium Flux Assay (ROMK channel functional thallium flux assay)). Settings: HEK293 cells stably expressing hROMK (hKir1.1); FluxOR thallium flux, FLIPR-Tetra, 30 min compound incubation; read-out: ROMK TI IC50.
T1 construct: expressed in transfected cells
T1 sequence (P48048 1-391): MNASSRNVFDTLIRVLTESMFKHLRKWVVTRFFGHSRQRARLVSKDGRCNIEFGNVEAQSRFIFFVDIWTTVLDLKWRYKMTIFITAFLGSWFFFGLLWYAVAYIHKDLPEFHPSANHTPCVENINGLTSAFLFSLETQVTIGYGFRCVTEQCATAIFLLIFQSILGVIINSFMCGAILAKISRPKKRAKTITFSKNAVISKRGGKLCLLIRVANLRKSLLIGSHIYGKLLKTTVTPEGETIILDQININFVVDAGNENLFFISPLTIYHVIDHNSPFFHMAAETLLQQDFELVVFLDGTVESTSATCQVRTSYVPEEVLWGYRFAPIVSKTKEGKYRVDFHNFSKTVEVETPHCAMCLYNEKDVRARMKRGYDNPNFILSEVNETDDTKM
Format: cell-based
Summary of the method: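 HEK293 cells stably expressing hROMK (hKir1.1) loaded with FluxOR dye 90 min at ambient temperature, then compound 30 min before thallium/potassium stimulant (final 3 mM Tl/0.3 mM K). ROMK-sensitive flux defined by 3 μM standard inhibitor; data as % fluorescence change.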

SMILES	IC50 [nM]
Cc1cnsc1N1CCC2(CCN(C[C@H](O)c3ccc4c(c3C)COC4=O)CC2)C1=O [Example 104, (R)-8-(2-hydroxy-2-(4-methyl-1-oxo-1,3-dihydroisobenzofuran-5-yl)ethyl)-2-(4-methylisothiazol-5-yl)-2,8-diazaspiro[4.5]decan-1-one]	65.5
Cc1c([C@@H](O)CN2CCC3(CC2)CCN(c2sncc2Cl)C3=O)ccc2c1COC2=O [Example 105, (R)-2-(4-chloroisothiazol-5-yl)-8-(2-hydroxy-2-(4-methyl-1-oxo-1,3-dihydroisobenzofuran-5-yl)ethyl)-2,8-diazaspiro[4.5]decan-1-one]	54.2
Cc1c([C@@H](O)CN2CCC3(CC2)NCCN(c2ccc(=O)n(C)n2)C3=O)ccc2c1COC2=O [Example 106, (R)-9-(2-hydroxy-2-(4-methyl-1-oxo-1,3-dihydroisobenzofuran-5-yl)ethyl)-4-(1-methyl-6-oxo-1,6-dihydropyridazin-3-yl)-1,4,9-triazaspiro[5.5]undecan-5-one]	361
Cc1c([C@@H](O)[C@H](C)N2CCC3(CCN(c4ccc(=O)n(C)n4)C3=O)CC2)ccc2c1COC2=O [Example 107, 8-((1R,2S)-1-hydroxy-1-(4-methyl-1-oxo-1,3-dihydroisobenzofuran-5-yl)propan-2-yl)-2-(1-methyl-6-oxo-1,6-dihydropyridazin-3-yl)-2,8-diazaspiro[4.5]decan-1-one]	42
Cc1c([C@@H](O)[C@@H](C)N2CCC3(CCN(c4ccc(=O)n(C)n4)C3=O)CC2)ccc2c1COC2=O [Example 108, 8-((1R,2R)-1-hydroxy-1-(4-methyl-1-oxo-1,3-dihydroisobenzofuran-5-yl)propan-2-yl)-2-(1-methyl-6-oxo-1,6-dihydropyridazin-3-yl)-2,8-diazaspiro[4.5]decan-1-one]	56
Cc1c(C(O)C(C)N2CCC3(CCN(c4ccc(=O)n(C)n4)C3=O)CC2)ccc2c1COC2=O [Example 109, 8-41S,2S)-1-hydroxy-1-(4-methyl-1-oxo-1,3-dihydroisobenzofuran-5-yl)propan-2-yl)-2-(1-methyl-6-oxo-1,6-dihydropyridazin-3-yl)-2,8-diazaspiro[4.5]decan-1-one]	20
Cc1c([C@@H](O)CN2CCC3(CC2)CCN(c2cnn(C)c(=O)c2)CC3)ccc2c1COC2=O [Example 110, (R)-5-(9-(2-hydroxy-2-(4-methyl-1-oxo-1,3-dihydroisobenzofuran-5-yl)ethyl)-3,9-diazaspiro[5.5]undecan-3-yl)-2-methylpyridazin-3(2H)-one]	279
Cc1c([C@@H](O)CN2CCC3(CC2)CCN(c2cncc(F)c2)CC3)ccc2c1COC2=O [Example 111, 9-(5-fluoropyridin-3-yl)-3-[(2R)-2-hydroxy-2-(4-methyl-1-oxo-1,3-dihydro-2-benzofuran-5-yl)ethyl]-9-aza-3-azoniaspiro[5.5]undecane]	185
Cc1c([C@@H](O)CN2CCC3(CC2)CCN(c2ccccn2)CC3)ccc2c1COC2=O [Example 112, 3-[(2R)-2-hydroxy-2-(4-methyl-1-oxo-1,3-dihydro-2-benzofuran-5-yl)ethyl]-9-pyridin-2-yl-9-aza-3-azoniaspiro[5.5]undecane]	282
Cc1c([C@@H](O)CN2CCC3(CC2)CCN(c2ccc(=O)n(C)n2)CC3)ccc2c1COC2=O [Example 113, (R)-6-(9-(2-hydroxy-2-(4-methyl-1-oxo-1,3-dihydroisobenzofuran-5-yl)ethyl)-3,9-diazaspiro[5.5]undecan-3-yl)-2-methylpyridazin-3(2H)-one]	616
COc1ccnc(N2CCC3(CCN(C[C@H](O)c4ccc5c(c4C)COC5=O)CC3)CC2)n1 [Example 114, (R)-5-(1-hydroxy-2-(9-(4-methoxypyrimidin-2-yl)-3,9-diazaspiro[5.5]undecan-3-yl)ethyl)-4-methylisobenzofuran-1(3H)-one]	384
Cc1c([C@@H](O)CN2CCC3(CC2)CCN(c2ccc(C(F)(F)F)cn2)CC3)ccc2c1COC2=O [Example 115, (R)-5-(1-hydroxy-2-(9-(5-(trifluoromethyl)pyridin-2-yl)-3,9-diazaspiro[5.5]undecan-3-yl)ethyl)-4-methylisobenzofuran-1(3H)-one]	225
Cc1c([C@@H](O)CN2CCC3(CC2)CCN(c2cnccn2)CC3)ccc2c1COC2=O [Example 116, (R)-5-(1-hydroxy-2-(9-(pyrazin-2-yl)-3,9-diazaspiro[5.5]undecan-3-yl)ethyl)-4-methylisobenzofuran-1(3H)-one]	6.28
Cc1c([C@@H](O)CN2CCC3(CC2)CCN(c2cc(F)ncn2)CC3)ccc2c1COC2=O [Example 117, (R)-5-(2-(9-(6-fluoropyrimidin-4-yl)-3,9-diazaspiro[5.5]undecan-3-yl)-1-hydroxyethyl)-4-methylisobenzofuran-1(3H)-one]	403
COc1cnc(N2CCC3(CCN(C[C@H](O)c4ccc5c(c4C)COC5=O)CC3)CC2)nc1 [Example 118, (R)-5-(1-hydroxy-2-(9-(5-methoxypyrimidin-2-yl)-3,9-diazaspiro[5.5]undecan-3-yl)ethyl)-4-methylisobenzofuran-1(3H)-one]	125
Cc1c([C@@H](O)CN2CCC3(CC2)CCN(c2ncc(C(F)(F)F)cc2F)CC3)ccc2c1COC2=O [Example 119, (R)-5-(2-(9-(3-fluoro-5-(trifluoromethyl)pyridin-2-yl)-3,9-diazaspiro[5.5]undecan-3-yl)-1-hydroxyethyl)-4-methylisobenzofuran-1(3H)-one]	967
Cc1c([C@@H](O)CN2CCC3(CC2)CCN(c2cnc(C(=O)O)cn2)CC3)ccc2c1COC2=O [Example 120, (R)-5-(9-(2-hydroxy-2-(4-methyl-1-oxo-1,3-dihydroisobenzofuran-5-yl)ethyl)-3,9-diazaspiro[5.5]undecan-3-yl)pyrazine-2-carboxylic acid]	236
Cc1c([C@@H](O)CN2CCC3(CC2)CCN(c2cncc(C(=O)O)n2)CC3)ccc2c1COC2=O [Example 121, (R)-6-(9-(2-hydroxy-2-(4-methyl-1-oxo-1,3-dihydroisobenzofuran-5-yl)ethyl)-3,9-diazaspiro[5.5]undecan-3-yl)pyrazine-2-carboxylic acid]	314
Cc1c([C@@H](O)CN2CCC3(CC2)CCN(c2nccnc2N)CC3)ccc2c1COC2=O [Example 122, (R)-5-(2-(9-(3-aminopyrazin-2-yl)-3,9-diazaspiro[5.5]undecan-3-yl)-1-hydroxyethyl)-4-methylisobenzofuran-1(3H)-one]	160
Cc1c([C@@H](O)CN2CCC3(CC2)CCN(c2ccc(Cl)nn2)CC3)ccc2c1COC2=O [Example 123, (R)-5-(2-(9-(6-chloropyridazin-3-yl)-3,9-diazaspiro[5.5]undecan-3-yl)-1-hydroxyethyl)-4-methylisobenzofuran-1(3H)-one]	8.45
Cc1ccc(N2CCC3(CCN(C[C@H](O)c4ccc5c(c4C)COC5=O)CC3)CC2)nn1 [Example 124, (R)-5-(1-hydroxy-2-(9-(6-methylpyridazin-3-yl)-3,9-diazaspiro[5.5]undecan-3-yl)ethyl)-4-methylisobenzofuran-1(3H)-one]	37.1
Cc1c([C@@H](O)CN2CCC3(CC2)CCN(c2cnc(C(F)(F)F)cn2)CC3)ccc2c1COC2=O [Example 125, (R)-5-(1-hydroxy-2-(9-(5-(trifluoromethyl)pyrazin-2-yl)-3,9-diazaspiro[5.5]undecan-3-yl)ethyl)-4-methylisobenzofuran-1(3H)-one]	492
Cc1c([C@@H](O)CN2CCC3(CC2)CCN(c2cncc(Cl)n2)CC3)ccc2c1COC2=O [Example 126, (R)-5-(2-(9-(6-chloropyrazin-2-yl)-3,9-diazaspiro[5.5]undecan-3-yl)-1-hydroxyethyl)-4-methylisobenzofuran-1(3H)-one]	281
Cc1c([C@@H](O)CN2CCC3(CC2)CCN(c2cnc(Br)cn2)CC3)ccc2c1COC2=O [Example 127, (R)-5-(2-(9-(5-bromopyrazin-2-yl)-3,9-diazaspiro[5.5]undecan-3-yl)-1-hydroxyethyl)-4-methylisobenzofuran-1(3H)-one]	29.9
Cc1nccnc1N1CCC2(CCN(C[C@H](O)c3ccc4c(c3C)COC4=O)CC2)CC1 [Example 128, (R)-5-(1-hydroxy-2-(9-(3-methylpyrazin-2-yl)-3,9-diazaspiro[5.5]undecan-3-yl)ethyl)-4-methylisobenzofuran-1(3H)-one]	581
Cc1c([C@@H](O)CN2CCC3(CC2)CCN(c2cncc(N)n2)CC3)ccc2c1COC2=O [Example 129, (R)-5-(2-(9-(6-aminopyrazin-2-yl)-3,9-diazaspiro[5.5]undecan-3-yl)-1-hydroxyethyl)-4-methylisobenzofuran-1(3H)-one]	68.3
Cc1cc(N2CCC3(CCN(C[C@H](O)c4ccc5c(c4C)COC5=O)CC3)CC2)nnc1Cl [Example 130, (R)-5-(2-(9-(6-chloro-5-methylpyridazin-3-yl)-3,9-diazaspiro[5.5]undecan-3-yl)-1-hydroxyethyl)-4-methylisobenzofuran-1(3H)-one]	553
Cc1c([C@@H](O)CN2CCC3(CC2)CCN(c2cc(Cl)cnn2)CC3)ccc2c1COC2=O [Example 131, (R)-5-(2-(9-(5-chloropyridazin-3-yl)-3,9-diazaspiro[5.5]undecan-3-yl)-1-hydroxyethyl)-4-methylisobenzofuran-1(3H)-one]	23.8
